The values that follow come from patent publication US20240270821A1, “GIP/GLP1/GCG TRI-RECEPTOR AGONISTS AND USES THEREOF” (priority 2023, published 2024).

pEC50: −log10 of the molar value. Read-outs that look alike come from different tables or passages of the source. Starred links: 1 amine or outer side, 2 acyl side, 3 side chain; linkers in the order of their positions; H or OH if unused. Non-standard residues stand in square brackets, D forms with d. Groups on a side chain read outwards from the residue. *: point of attachment. C20 diacid = O=C(O)CCCCCCCCCCCCCCCCCCC(=O)*; C18 diacid = O=C(O)CCCCCCCCCCCCCCCCC(=O)*; αMePhe(2-F) = C[C@](N)(Cc1ccccc1F)C(=O)O; γGlu = O=C(O)[C@H](CCC(=O)[*:2])N[*:1]; αMeY = C[C@](N)(Cc1ccc(O)cc1)C(=O)O; 4Pal = N[C@@H](Cc1ccncc1)C(=O)O; Orn = NCCC[C@H](N)C(=O)O; AEEA = NCCOCCOCC(=O)O; Aib = CC(C)(N)C(=O)O

What all share (format): cell-based
Assay [1] deals with T1, hGIPR (Homo sapiens, UniProt P48546).
T1 sequence (P48546 22-466): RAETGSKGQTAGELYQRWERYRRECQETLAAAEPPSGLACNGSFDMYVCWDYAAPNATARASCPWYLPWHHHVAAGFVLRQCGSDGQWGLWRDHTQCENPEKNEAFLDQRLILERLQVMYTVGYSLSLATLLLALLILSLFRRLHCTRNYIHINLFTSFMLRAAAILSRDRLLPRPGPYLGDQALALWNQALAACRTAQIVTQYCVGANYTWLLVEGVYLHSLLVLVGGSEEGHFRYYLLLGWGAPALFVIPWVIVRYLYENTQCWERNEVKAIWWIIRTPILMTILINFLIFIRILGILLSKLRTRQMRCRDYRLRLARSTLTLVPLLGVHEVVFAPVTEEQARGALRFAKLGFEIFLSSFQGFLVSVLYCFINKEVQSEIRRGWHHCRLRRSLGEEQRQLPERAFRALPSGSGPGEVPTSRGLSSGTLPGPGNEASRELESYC
The assay is described as follows: Functional cAMP activation in the presence of 0.1% casein (no HSA). As to conditions: read-out: Relative cAMP EC50, hGIPR.

The target of a further assay is human GcgR (Homo sapiens, UniProt P47871). The assay is described as follows: Functional cAMP activity in the presence of 1% HSA. Conditions: read-out: cAMP Rel EC50, hGcgR.
The target in assay [2] is T2, hGLP-1R (Homo sapiens, UniProt P43220). As to the kind of experiment: Functional cAMP activity in the presence of 1% HSA. As to conditions: read-out: cAMP Rel EC50, hGLP-1R.
Assay [3] addresses T1, hGIPR. The assay is described as follows: Functional cAMP activity in the presence of 1% HSA. As to conditions: read-out: cAMP Rel EC50, hGIPR.
The target in assay [4] is T2, hGLP-1R. The assay is described as follows: Functional cAMP activation in the presence of 0.1% casein (no HSA). As to conditions: read-out: Relative cAMP EC50, hGLP-1R.
The target in another assay is hGcgR (Homo sapiens, UniProt P47871). The description is as above. Conditions: read-out: Relative cAMP EC50, hGcgR.
The mark [5] stands for this setting: in the presence of 0.1% casein (no HSA), geometric mean.

The term pEC50 denotes the EC50 on a negative log10 scale, so that one unit is a factor of ten.
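Wherever Relative cAMP EC50, hGIPR is given: intracellular cAMP rise after 30 min at 37 °C read by HTRF against a standard curve, scaled between buffer alone (0%) and top control ligand concentration (100%), four-parameter fit.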
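Wherever Relative cAMP EC50, hGLP-1R is given: intracellular cAMP rise after 30 min at 37 °C read by HTRF, normalized between buffer only (0%) and maximal control ligand (100%), four-parameter variable-slope fit.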
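Wherever Relative cAMP EC50, hGcgR is given: intracellular cAMP rise after 30 min at 37 °C, read by HTRF against a cAMP standard curve, scaled from buffer only (0%) to maximal control ligand response (100%).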

Sequence of hGcgR (P47871 26-477): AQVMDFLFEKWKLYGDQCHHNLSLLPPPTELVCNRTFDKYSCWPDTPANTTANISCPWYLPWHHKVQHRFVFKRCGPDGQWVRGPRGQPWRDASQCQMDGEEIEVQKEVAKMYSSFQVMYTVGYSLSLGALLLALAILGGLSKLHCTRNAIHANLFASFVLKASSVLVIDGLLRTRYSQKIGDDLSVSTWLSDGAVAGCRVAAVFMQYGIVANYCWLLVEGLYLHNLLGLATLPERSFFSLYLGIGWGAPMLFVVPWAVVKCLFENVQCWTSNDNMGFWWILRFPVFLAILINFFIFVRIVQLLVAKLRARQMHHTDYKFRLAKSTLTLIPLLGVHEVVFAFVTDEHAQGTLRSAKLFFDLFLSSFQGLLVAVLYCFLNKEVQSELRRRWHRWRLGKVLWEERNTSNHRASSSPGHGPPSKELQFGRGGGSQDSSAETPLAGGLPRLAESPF
Sequence of human GcgR (P47871 26-477): as above
T2 sequence (P43220 24-463): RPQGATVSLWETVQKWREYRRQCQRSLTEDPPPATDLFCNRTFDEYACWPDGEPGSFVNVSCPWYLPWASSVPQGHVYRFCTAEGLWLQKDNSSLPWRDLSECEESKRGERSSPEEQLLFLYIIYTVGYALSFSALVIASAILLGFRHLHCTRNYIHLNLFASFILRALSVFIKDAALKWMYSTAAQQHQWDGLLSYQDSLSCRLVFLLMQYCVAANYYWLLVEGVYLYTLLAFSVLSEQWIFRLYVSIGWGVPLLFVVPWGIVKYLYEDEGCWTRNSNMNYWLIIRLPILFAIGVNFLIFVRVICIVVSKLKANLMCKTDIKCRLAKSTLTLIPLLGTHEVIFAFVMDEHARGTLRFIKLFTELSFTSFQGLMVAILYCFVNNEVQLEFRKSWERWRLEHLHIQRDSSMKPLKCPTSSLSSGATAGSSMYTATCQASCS

Take “H-Y[Aib]QGT[αMePhe(2-F)]TSD[4Pal]SILLDKK([γGlu-γGlu-C18 diacid])AQ[Aib]AFIEYLEEGGPSSGAPPPSGEGE-NH2 [Example 621]”: the pEC50 on hGIPR [1] is 10.18; at human GcgR, 6.05; on hGLP-1R [2], 6.95; on hGIPR [3], 8.14; on hGLP-1R [4], 8.89; at hGcgR it was 8.17.

On to “H-Y[Aib]QGT[αMePhe(2-F)]TSD[4Pal]SILLDKK([γGlu-γGlu-C18 diacid])AQ[Aib]AFIEYLEEGGPSSGAPPPSGGEE-NH2 [Example 612]”, for which the pEC50 on hGIPR [1] is 10.06; at human GcgR, 6.19; on hGLP-1R [2], 6.90; on hGIPR [3], 8.12; on hGLP-1R [4], 8.92; at hGcgR, 8.15.

As to “H-Y[Aib]QGT[αMePhe(2-F)]TSD[4Pal]SILLDKK([γGlu-γGlu-C18 diacid])AQ[Aib]AFIEYLEEGGPSSGAPPPSGGGE-NH2 [Example 619]”, the pEC50 at hGIPR [1] is 10.16; at human GcgR it was 6.09; at hGLP-1R [2], 7.03; on hGIPR [3] it was 8.17; on hGLP-1R [4] it was 9.00; at hGcgR it was 8.20.

“H-Y[Aib]QGT[αMePhe(2-F)]TSD[4Pal]SILLDKK([γGlu-γGlu-C18 diacid])AQ[Aib]AFIEYLEEGGPSSGAPPPSGSEE-NH2 [Example 610]”: the pEC50 was 9.88 at hGIPR [1]; 6.27 at human GcgR; 6.89 at hGLP-1R [2]; 8.15 at hGIPR [3]; 8.78 on hGLP-1R [4]; 8.24 on hGcgR.

With “H-Y[Aib]QGT[αMePhe(2-F)]TSD[4Pal]SILLDKK([γGlu-γGlu-C18 diacid])AQ[Aib]AFIEYLEEGGPSSGAPPPSGSGE-NH2 [Example 618]”, the negative logarithm of the EC50 (pEC50) was 10.38 on hGIPR [1]; 6.16 on human GcgR; 7.05 at hGLP-1R [2]; 8.33 on hGIPR [3]; 8.82 on hGLP-1R [4]; 8.25 at hGcgR.

Turning to “H-Y[Aib]QGT[αMePhe(2-F)]TSD[4Pal]SILLDKK([γGlu-γGlu-C18 diacid])AQ[Aib]AFIEYLEEGGPSSGAPPPSGTE-NH2 [Example 509]”, the pEC50 is 10.25 at hGIPR [1]; 6.21 on human GcgR; 7.16 at hGLP-1R [2]; 8.30 at hGIPR [3]; 9.19 on hGLP-1R [4]; 8.33 on hGcgR.

Take “H-Y[Aib]QGT[αMePhe(2-F)]TSD[4Pal]SILLDKK([γGlu-γGlu-C18 diacid])AQ[Aib]AFIEYLEEGGPSSGAPPPSGTEE-NH2 [Example 609]”: the pEC50 was 10.11 at hGIPR [1]; 6.19 at human GcgR; 6.92 on hGLP-1R [2]; 8.21 on hGIPR [3]; 8.97 at hGLP-1R [4]; 8.19 at hGcgR.

Take “H-Y[Aib]QGT[αMePhe(2-F)]TSD[4Pal]SILLDKK([γGlu-γGlu-C18 diacid])AQ[Aib]AFIEYLEEGGPSSGEPPPSGTEE-NH2 [Example 608]”: the pEC50 on hGIPR [1] is 9.91; at human GcgR it was 6.17; on hGLP-1R [2] it was 6.70; on hGIPR [3], 8.07; at hGLP-1R [4], 8.73; at hGcgR, 8.11.

With “H-Y[Aib]QGT[αMePhe(2-F)]TSD[4Pal]SILLDKK([γGlu-γGlu-C18 diacid])AQ[Aib]AFIEYLEEGGPSSGEPPPSGTGE-NH2 [Example 607]”, the pEC50 on hGIPR [1] is 10.06; on human GcgR, 6.25; at hGLP-1R [2], 6.86; on hGIPR [3], 8.18; on hGLP-1R [4] it was 8.94; on hGcgR it was 8.05.

For the substance “H-Y[Aib]QGT[αMePhe(2-F)]TSD[4Pal]SILLDKK([γGlu-γGlu-C18 diacid])AQ[Aib]AFIEYLQEGGPSSGAPPPSGTE-NH2 [Example 553]”, the pEC50 at hGIPR [1] was 10.43; at human GcgR, 6.28; at hGLP-1R [2], 7.29; on hGIPR [3], 8.53; at hGLP-1R [4], 9.40; at hGcgR it was 8.34.

Consider “H-Y[Aib]QGT[αMePhe(2-F)]TSD[4Pal]SILLDKK([γGlu-γGlu-C18 diacid])AQ[Aib]AFIE[4Pal]LEEGGPSSGAPPPSGTE-NH2 [Example 550]”, for which the negative-log EC50 (pEC50) at hGIPR [1] is 10.06; at human GcgR it was 6.00; at hGLP-1R [2], 6.58; on hGIPR [3], 8.23; on hGLP-1R [4], 8.67; on hGcgR it was 7.93.

Consider “H-Y[Aib]QGT[αMePhe(2-F)]TSD[4Pal]SILLDKK([γGlu-γGlu-C18 diacid])AQ[Aib]AFIE[αMeY]LEEGGPSSGAPPPSGEGE-NH2 [Example 667]”, for which the pEC50 on hGIPR [1] is 10.66; at human GcgR, 6.67; on hGLP-1R [2], 7.48; at hGIPR [3] it was 8.84; at hGLP-1R [4], 9.38; at hGcgR, 8.63.

As for “H-Y[Aib]QGT[αMePhe(2-F)]TSD[4Pal]SILLDKK([γGlu-γGlu-C18 diacid])AQ[Aib]AFIE[αMeY]LEEGGPSSGAPPPSGGGE-NH2 [Example 668]”, the pEC50 on hGIPR [1] is 10.70; at human GcgR, 6.69; at hGLP-1R [2], 7.57; at hGIPR [3], 8.77; on hGLP-1R [4], 9.49; at hGcgR it was 8.69.

For “H-Y[Aib]QGT[αMePhe(2-F)]TSD[4Pal]SILLDKK([γGlu-γGlu-C18 diacid])AQ[Aib]AFIE[αMeY]LEEGGPSSGAPPPSGTE-NH2 [Example 551]”, the negative logarithm of the EC50 (pEC50) is 10.76 at hGIPR [1]; 6.68 on human GcgR; 7.42 at hGLP-1R [2]; 8.73 at hGIPR [3]; 9.52 at hGLP-1R [4]; 8.76 on hGcgR.

Take “H-Y[Aib]QGT[αMePhe(2-F)]TSD[4Pal]SILLDKK([γGlu-γGlu-C18 diacid])AQ[Aib]AFIE[αMeY]LEEGGPSSGAPPPSGTGE-NH2 [Example 664]”: the pEC50 is 10.80 at hGIPR [1]; 6.75 on human GcgR; 7.56 at hGLP-1R [2]; 8.93 at hGIPR [3]; 9.45 at hGLP-1R [4]; 8.67 at hGcgR.

In the case of “H-Y[Aib]QGT[αMePhe(2-F)]TSD[4Pal]SILLDKQAQK([AEEA-AEEA-γGlu-C20 diacid])AFIEYLLEGGPSSGEPPPSEG-NH2 [Example 347]”, the pEC50 on hGIPR [1] (setting [5]) is 10.20; at human GcgR it was 5.44; at hGLP-1R [2], 6.60; on hGIPR [3], 7.76; at hGLP-1R [4] (setting [5]) it was 9.10; at hGcgR (setting [5]) it was 8.05.

With “H-Y[Aib]QGT[αMePhe(2-F)]TSD[4Pal]SILLD[Orn]K([γGlu-γGlu-C18 diacid])AQ[Aib]AFIEYLEEGGPSSGAPPPSGTE-NH2 [Example 513]”, the pEC50 at hGIPR [1] is 10.02; at human GcgR, 5.84; on hGLP-1R [2], 7.11; at hGIPR [3] it was 7.99; on hGLP-1R [4], 9.20; at hGcgR it was 8.02.

Turning to “H-Y[Aib]QGT[αMePhe(2-F)]TSD[4Pal]SILLD[Orn]K([γGlu-γGlu-C18 diacid])AQ[Aib]AFIEYLEEGGPSSGAPPPSGTGE-NH2 [Example 514]”, the pEC50 on hGIPR [1] is 10.13; on human GcgR, 5.94; at hGLP-1R [2], 7.09; at hGIPR [3] it was 8.00; at hGLP-1R [4], 9.21; on hGcgR it was 8.18.

Regarding “H-Y[Aib]QGT[αMePhe(2-F)]TSD[4Pal]SILLD[Orn]K([γGlu-γGlu-C18 diacid])AQ[Aib]AFIEYLQEGGPSSGAPPPSGTEE-NH2 [Example 581]”, the negative-log EC50 (pEC50) on hGIPR [1] is 10.09; on human GcgR, 5.82; at hGLP-1R [2], 7.18; at hGIPR [3], 8.14; on hGLP-1R [4], 9.39; on hGcgR it was 8.09.

With “H-Y[Aib]QGT[αMePhe(2-F)]TSD[4Pal]SILLD[Orn]K([γGlu-γGlu-C18 diacid])AQ[Aib]AFIEYLQEGGPSSGEPPPSGTEE-NH2 [Example 583]”, the pEC50 on hGIPR [1] was 10.16; at human GcgR, 5.90; at hGLP-1R [2], 7.15; on hGIPR [3], 7.91; on hGLP-1R [4], 9.27; on hGcgR it was 8.20.

As to “H-Y[Aib]QGT[αMePhe(2-F)]TSD[4Pal]SILLD[Orn]K([γGlu-γGlu-C18 diacid])AQ[Aib]AFIE[αMeY]LEEGGPSSGAPPPSGTGE-NH2 [Example 665]”, the pEC50 on hGIPR [1] was 10.65; on human GcgR it was 6.55; at hGLP-1R [2], 7.48; on hGIPR [3], 8.68; at hGLP-1R [4] it was 9.55; at hGcgR, 8.53.
